Assay results as given in PubChem BioAssay (NCI).
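Briefly, cells in 96-well plates were exposed to five compound concentrations for 48 h, and endpoints were estimated by linear interpolation. TGI is the concentration that stops growth completely.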

How the values were obtained:
Assay in all cases: DTP human tumour cell line panel, 48 h
COLO 205 colon = system: COLO 205 colon
HCT-116 colon = system: HCT-116 colon
MCF7 breast = system: MCF7 breast
EKVX NSCLC = system: EKVX NSCLC
U251 CNS = system: U251 CNS
HT29 colon = system: HT29 colon
PC-3 prostate = system: PC-3 prostate
KM12 colon = system: KM12 colon
MDA-MB-435 = system: MDA-MB-435
HL-60(TB) leukemia = system: HL-60(TB) leukemia
IGROV1 ovarian = system: IGROV1 ovarian
NCI-H23 lung = system: NCI-H23 lung
K-562 leukemia = system: K-562 leukemia
NCI-H460 lung = system: NCI-H460 lung
UACC-62 melanoma = system: UACC-62 melanoma
SR leukemia = system: SR leukemia
OVCAR-3 ovarian = system: OVCAR-3 ovarian
HCT-15 colon = system: HCT-15 colon
SK-MEL-28 melanoma = system: SK-MEL-28 melanoma
A498 renal = system: A498 renal
SK-MEL-5 melanoma = system: SK-MEL-5 melanoma
CCRF-CEM leukemia = system: CCRF-CEM leukemia
OVCAR-5 ovarian = system: OVCAR-5 ovarian
HCC-2998 colon = system: HCC-2998 colon
MOLT-4 leukemia = system: MOLT-4 leukemia
HOP-62 NSCLC = system: HOP-62 NSCLC
SN12C renal = system: SN12C renal
OVCAR-4 ovarian = system: OVCAR-4 ovarian
ACHN renal = system: ACHN renal
NCI/ADR-RES ovarian = system: NCI/ADR-RES ovarian
SF-295 CNS = system: SF-295 CNS
OVCAR-8 ovarian = system: OVCAR-8 ovarian
HS 578T breast = system: HS 578T breast
MALME-3M melanoma = system: MALME-3M melanoma
MDA-N = system: MDA-N
TK-10 renal = system: TK-10 renal
786-0 renal = system: 786-0 renal
A549 NSCLC = system: A549 NSCLC
RPMI-8226 leukemia = system: RPMI-8226 leukemia
NCI-H522 lung = system: NCI-H522 lung
SF-539 CNS = system: SF-539 CNS
SK-OV-3 ovarian = system: SK-OV-3 ovarian
SF-268 CNS = system: SF-268 CNS
MDA-MB-231 breast = system: MDA-MB-231 breast
SNB-19 CNS = system: SNB-19 CNS
LOX IMVI melanoma = system: LOX IMVI melanoma
UACC-257 melanoma = system: UACC-257 melanoma
DU-145 prostate = system: DU-145 prostate
NCI-H226 lung = system: NCI-H226 lung
T-47D breast = system: T-47D breast
SW-620 colon = system: SW-620 colon
M14 melanoma = system: M14 melanoma
SK-MEL-2 melanoma = system: SK-MEL-2 melanoma
RXF 393 renal = system: RXF 393 renal
CAKI-1 renal = system: CAKI-1 renal
HOP-92 NSCLC = system: HOP-92 NSCLC
UO-31 renal = system: UO-31 renal

`O=c1cc(NNc2ccccc2)[nH]c(=O)[nH]1` showed a TGI (COLO 205 colon) of 31.8 µM, a TGI (HCT-116 colon) of 32.6 µM and a TGI (MCF7 breast) of 26.3 µM. It also gave a TGI (EKVX NSCLC) greater than 100 µM, a TGI (U251 CNS) of 31.9 µM and a TGI (HT29 colon) of 39 µM. For the same compound, the TGI (PC-3 prostate) was 36.3 µM, the TGI (KM12 colon) was 32.8 µM and the TGI (MDA-MB-435) was 33.7 µM. It also gave a TGI (HL-60(TB) leukemia) of 64.6 µM, a TGI (IGROV1 ovarian) greater than 100 µM and a TGI (NCI-H23 lung) greater than 100 µM. It also gave a TGI (K-562 leukemia) of 91.1 µM, a TGI (NCI-H460 lung) of 98.9 µM and a TGI (UACC-62 melanoma) of 28.5 µM. For the same compound, the TGI (SR leukemia) was 84.6 µM, the TGI (OVCAR-3 ovarian) was 30.9 µM and the TGI (HCT-15 colon) was 30 µM. The TGI (SK-MEL-28 melanoma) was 23.2 µM, the TGI (A498 renal) was greater than 100 µM and the TGI (SK-MEL-5 melanoma) was greater than 100 µM. For the same compound, the TGI (CCRF-CEM leukemia) was greater than 100 µM, the TGI (OVCAR-5 ovarian) was greater than 100 µM and the TGI (HCC-2998 colon) was 39.9 µM. For the same compound, the TGI (MOLT-4 leukemia) was 66.1 µM, the TGI (HOP-62 NSCLC) was greater than 100 µM and the TGI (SN12C renal) was 49.4 µM. It also gave a TGI (OVCAR-4 ovarian) of 29.5 µM, a TGI (ACHN renal) of 26.1 µM and a TGI (NCI/ADR-RES ovarian) of 67.9 µM. It also gave a TGI (SF-295 CNS) greater than 100 µM, a TGI (OVCAR-8 ovarian) of 46.1 µM and a TGI (HS 578T breast) greater than 100 µM. The TGI (MALME-3M melanoma) was 34.4 µM, the TGI (MDA-N) was 35.1 µM and the TGI (TK-10 renal) was greater than 100 µM. For the same compound, the TGI (786-0 renal) was 29.6 µM, the TGI (A549 NSCLC) was greater than 100 µM and the TGI (RPMI-8226 leukemia) was 59.9 µM. It also gave a TGI (NCI-H522 lung) of 46.2 µM, a TGI (SF-539 CNS) greater than 100 µM and a TGI (SK-OV-3 ovarian) greater than 100 µM. The TGI (SF-268 CNS) was 99.6 µM, the TGI (MDA-MB-231 breast) was 29.3 µM and the TGI (SNB-19 CNS) was 35.5 µM. It also gave a TGI (LOX IMVI melanoma) of 42.7 µM, a TGI (UACC-257 melanoma) of 31.7 µM and a TGI (DU-145 prostate) greater than 100 µM. The TGI (NCI-H226 lung) was 36 µM.
For `Cc1[nH]n(-c2nc(-c3ccccc3)cc(=O)[nH]2)c(=O)c1CCO`, the TGI (T-47D breast) was greater than 100 µM, the TGI (COLO 205 colon) was greater than 100 µM and the TGI (HCT-116 colon) was greater than 100 µM. It also gave a TGI (SW-620 colon) greater than 100 µM, a TGI (MCF7 breast) greater than 100 µM and a TGI (EKVX NSCLC) greater than 100 µM. For the same compound, the TGI (M14 melanoma) was greater than 100 µM, the TGI (SK-MEL-2 melanoma) was greater than 100 µM and the TGI (U251 CNS) was greater than 100 µM. For the same compound, the TGI (HT29 colon) was greater than 100 µM, the TGI (PC-3 prostate) was greater than 100 µM and the TGI (KM12 colon) was greater than 100 µM. The TGI (MDA-MB-435) was greater than 100 µM, the TGI (HL-60(TB) leukemia) was greater than 100 µM and the TGI (IGROV1 ovarian) was greater than 100 µM. The TGI (NCI-H23 lung) was greater than 100 µM, the TGI (K-562 leukemia) was greater than 100 µM and the TGI (NCI-H460 lung) was greater than 100 µM. It also gave a TGI (RXF 393 renal) greater than 100 µM, a TGI (CAKI-1 renal) greater than 100 µM and a TGI (UACC-62 melanoma) greater than 100 µM. It also gave a TGI (OVCAR-3 ovarian) greater than 100 µM, a TGI (HCT-15 colon) greater than 100 µM and a TGI (SK-MEL-28 melanoma) greater than 100 µM. For the same compound, the TGI (SK-MEL-5 melanoma) was greater than 100 µM, the TGI (CCRF-CEM leukemia) was greater than 100 µM and the TGI (OVCAR-5 ovarian) was greater than 100 µM. The TGI (HCC-2998 colon) was greater than 100 µM, the TGI (MOLT-4 leukemia) was greater than 100 µM and the TGI (HOP-62 NSCLC) was greater than 100 µM. The TGI (SN12C renal) was greater than 100 µM, the TGI (OVCAR-4 ovarian) was greater than 100 µM and the TGI (ACHN renal) was greater than 100 µM. For the same compound, the TGI (NCI/ADR-RES ovarian) was greater than 100 µM, the TGI (SF-295 CNS) was greater than 100 µM and the TGI (OVCAR-8 ovarian) was greater than 100 µM. It also gave a TGI (HS 578T breast) greater than 100 µM, a TGI (MALME-3M melanoma) greater than 100 µM and a TGI (MDA-N) greater than 100 µM. The TGI (TK-10 renal) was greater than 100 µM, the TGI (786-0 renal) was greater than 100 µM and the TGI (A549 NSCLC) was greater than 100 µM. The TGI (RPMI-8226 leukemia) was greater than 100 µM, the TGI (SF-539 CNS) was greater than 100 µM and the TGI (SK-OV-3 ovarian) was greater than 100 µM. The TGI (SF-268 CNS) was greater than 100 µM, the TGI (MDA-MB-231 breast) was greater than 100 µM and the TGI (HOP-92 NSCLC) was greater than 100 µM. It also gave a TGI (UO-31 renal) greater than 100 µM, a TGI (SNB-19 CNS) greater than 100 µM and a TGI (LOX IMVI melanoma) greater than 100 µM. It also gave a TGI (UACC-257 melanoma) greater than 100 µM, a TGI (DU-145 prostate) greater than 100 µM and a TGI (NCI-H226 lung) greater than 100 µM.
